“Also recorded” adds a separate entry of the source.
Experiments:
bone marrow cells [1] = assay: Bone marrow cell proliferation in vitro ([3H]-thymidine incorporation assay); assay type: cell-based, C57BL/6J mice
Experimental: All drugs were purchased from Sigma Chemical Co. St. Louis, Mo. Adenosine was dissolved in water and kept as a stock solution in a concentration of 1 mM. For in vitro studies, dilutions in RPMI medium were carried out and final concentrations of 100, 50, 25, 10 and 5 μM were used. For in vivo studies, the stock solution was diluted with PBS to a concentration of […] and 0.5 ml was injected intraperitoneally to mice. 1,3-dipropyl-8-cyclopentylxanthine (DPCPX), an adenosine A1 receptor antagonist, 3,7-dimethyl-1-propargyl-xanthine (DMPX) an A2 receptor antagonist and N-cyclopentyladenosine (CPA), a selective A1 receptor agonist were added to a culture of proliferating bone marrow cells.
Bone marrow cells were obtained from the femur of C57BL/6J mice. Cells were disaggregated by passing through a 25G needle. [^3H]-Thymidine incorporation assay was used to evaluate the proliferative capability of the bone marrow cells.
Cells (3×10^4/well were incubated with RPMI medium, containing 10% fetal calf serum (FCS) (Biological Industries, Beit Haemek, Israel) and adenosine, adenosine antagonists or the agonist in 96 microtiter plates for 48 h. Cultures containing cells were suspended in RPMI medium and 10% FCS served as controls. In the last 6 hours of incubation, each well was pulsed with 1 μCi [^3H]-thymidine. Cells were harvested and the ^3[H]-thymidine uptake was determined in an LKB liquid scintillation counter (LKB, Piscataway, N.J., USA).

[2] = system: white blood cells (WBC) and neutrophils; assay: In vivo protection against myelotoxic effects of chemotherapy: blood cell count (Coulter counter, differential counts); set-up: species or system ICR mice; details: for Neutrophils (no.) / WBC (no.): blood, CPA 6 μg/kg per os 48 h and 72 h where given; for Neutrophils (no.): control level 1200; for WBC (no.): control level 6100
Experimental: Male ICR mice of the age of two months and weighing an average of 25 gr were employed. The mice were purchased from Harlan Laboratories, Jerusalem, […]. Protection of CPA-treated mice against myelotoxic effects of chemotherapy was evaluated. To this end, mice were provided with a chemotherapeutic drug, a combination of the drug with CPA or with a vehicle only. […] In particular, three test groups of mice were treated daily according to the following regimen: 1. Control group-vehicle only. 2. Chemotherapy-CYP (50 mg/kg body weight). 3. Chemotherapy+chemoprotection-CYP (50 mg/kg body weight)+CPA (6 μg/kg body weight, given through per os administration, 48 h and 72 h following chemotherapy treatment). To test the myeloprotective effect of CPA, blood samples were withdrawn from the above-mentioned groups 96 h, 120 h and 144 h following treatment with CYP, the following measurements were taken. Blood cell count-Blood cell count was carried out in a Coulter counter and differential cell counts were performed on smear preparations stained with May-Grunvald-Giemsa solution. Serum was separated from the whole blood and was kept at -70° C.

G-CSF = assay: In vivo serum G-CSF level by ELISA after chemotherapy; set-up: species or system ICR mice; details: for G-CSF (pgr/ml): serum, CPA 6 μg/kg per os 48 h and 72 h after chemotherapy where given, male ICR mice
Experimental: Male ICR mice of the age of two months and weighing an average of 25 gr were employed. The mice were purchased from Harlan Laboratories, Jerusalem, […]. Protection of CPA-treated mice against myelotoxic effects of chemotherapy was evaluated. To this end, mice were provided with a chemotherapeutic drug, a combination of the drug with CPA or with a vehicle only. […] In particular, three test groups of mice were treated daily according to the following regimen: 1. Control group-vehicle only. 2. Chemotherapy-CYP (50 mg/kg body weight). 3. Chemotherapy+chemoprotection-CYP (50 mg/kg body weight)+CPA (6 μg/kg body weight, given through per os administration, 48 h and 72 h following chemotherapy treatment). To test the myeloprotective effect of CPA, blood samples were withdrawn from the above-mentioned groups 96 h, 120 h and 144 h following treatment with CYP, the following measurements were taken. G-CSF level-granulocyte colony stimulating factor (G-CSF) level in the serum was determined by the use of a commercial ELISA kit (R&D Systems). G-CSF activity was expressed in pgr/ml according to a standard curve of recombinant G-CSF supplied by R&D Systems.

bone marrow cells [3] = details: adenosine 10-50 μM, concentration dependent; cited from earlier work

In the case of `OC[C@H]1O[C@@H](n2cnc3c(NC4CCCC4)ncnc32)[C@H](O)[C@@H]1O` [CPA, N-cyclopentyladenosine], the “stimulation of bone marrow cell proliferation” value (bone marrow cells [1]; concentrations of 0.1 and 0.01 μM, FIG 2) is reported as “statistically significant stimulation”, the “in vivo protection against myelotoxicity of chemotherapeutic drugs” value ([2]; mice given CYP 50 mg/kg, CPA 6 μg/kg per os) is reported as “provides in vivo protection against myelotoxicity; also recorded: acts as a chemoprotective agent” and the “level of G-CSF (summary in words)” value (G-CSF; combined treatment versus CYP only, CPA given orally to mice) is reported as “induces in vivo G-CSF production”.

With `O=P1(N(CCCl)CCCl)NCCCO1` (stereo not shown) [CYP, cyclophosphamide] the “number of leukocytes and neutrophils (summary in words)” value ([2]; CYP only versus control, combined treatment versus CYP only) was “reduce significantly”, the “Neutrophils (no.)” value ([2]; 96 hrs after CYP 50 mg/kg) was 377 no and the “WBC (no.)” value ([2]; 96 hrs after CYP 50 mg/kg) was 2620 no. The “Neutrophils (no.)” value ([2]; 120 hrs after CYP 50 mg/kg) was 490 no, the “WBC (no.)” value ([2]; 120 hrs after CYP 50 mg/kg) was 2800 no and the “Neutrophils (no.)” value ([2]; 144 hrs after CYP 50 mg/kg) was 1326 no. For the same molecule, the “WBC (no.)” value ([2]; 144 hrs after CYP 50 mg/kg) was 3900 no, the “G-CSF (pgr/ml)” value (G-CSF; 96 hrs after CYP 50 mg/kg) was 511.30 pgr/ml and the “G-CSF (pgr/ml)” value (G-CSF; 120 hrs after CYP 50 mg/kg) was 333.03 pgr/ml. For the same molecule, the “G-CSF (pgr/ml)” value (G-CSF; 144 hrs after CYP 50 mg/kg) was 871.14 pgr/ml.

For `C#CCn1c(=O)c2c(ncn2C)n(C)c1=O` [DMPX, 3,7-dimethyl-1-propargyl-xanthine], the “effect on bone marrow cell proliferation” value (bone marrow cells [1]; 0.1 μM, given without or with adenosine, FIG 1) was “induced a stimulatory effect”.

With `CCCn1c(=O)c2[nH]c(C3CCCC3)nc2n(CCC)c1=O` [DPCPX, 1,3-dipropyl-8-cyclopentylxanthine] the “effect on adenosine-stimulated bone marrow cell proliferation” value (bone marrow cells [1]; 0.1 μM, with adenosine, FIG 1) was “significantly reversed the stimulatory effect of adenosine”.

For `Nc1ncnc2c1ncn2[C@@H]1O[C@H](CO)[C@@H](O)[C@H]1O` [adenosine], the “3[H]-thymidine incorporation of bone marrow cells” value (bone marrow cells [3]) is given as “stimulated”.
